We go through 19 compounds from PubChem BioAssay (NCI).

Among the test systems are MOLT-4 leukemia; UO-31 renal; SN12C renal; NCI-H226 lung; SF-539 CNS; SR leukemia; SF-295 CNS; NCI/ADR-RES ovarian; DU-145 prostate.
Common to all, as to assay: NCI-60 cell line screen, 48 h

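48-hour exposure; five concentrations; linearly interpolated endpoints. GI50 is the concentration that inhibits growth by half. TGI: total growth inhibition.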

On to `CCc1oc2ccc(OC)c3c2c1C=CC=C3`, for which the TGI in the test on MOLT-4 leukemia, with UO-31 renal, in the test on SN12C renal, in the test with NCI-H226 lung, in the test with SF-539 CNS and in the test on SR leukemia was over 100 µM in each case. This compound displayed a TGI with SF-295 CNS of over 100 µM.
Take `COC(=O)C(=O)C1CCCCC(C2=NC3NN=C(N)N3C2=O)C1=O` (centres undefined): the TGI in the test with MOLT-4 leukemia, with UO-31 renal, in the test on SN12C renal, in the test with NCI-H226 lung, with SF-539 CNS and in the test with SR leukemia was over 100 µM in each case. In the test on SF-295 CNS, the TGI is over 100 µM.
With `O=C1CCC(=O)C(C(=O)CCC(=O)Nc2cccc(Cl)c2)C1` (centres undefined), the TGI in the test on MOLT-4 leukemia, in the test with UO-31 renal, with SN12C renal, in the test on NCI-H226 lung, in the test with SF-539 CNS and in the test with SR leukemia was over 100 µM each time. The TGI with SF-295 CNS was over 100 µM.
On to `CC12C(=O)N(CCN)C(=O)C1C1c3ccccc3C2c2ccccc21` (centres undefined), for which the TGI in the test with MOLT-4 leukemia, with UO-31 renal, in the test on SN12C renal, in the test on NCI-H226 lung, in the test on SF-539 CNS and in the test with SF-295 CNS was over 100 µM throughout.
As to `N#CC12Cc3ccc4c(c3-c3cccc(c31)CCN2C(=O)c1ccccc1)OCO4` (centres undefined), the TGI in the test on MOLT-4 leukemia, in the test on UO-31 renal, in the test on SN12C renal, in the test with NCI-H226 lung, in the test on SF-539 CNS and with SR leukemia was over 100 µM throughout. In the test on SF-295 CNS, this compound gave a TGI of over 100 µM.
With `CCOc1ccc(NC(=O)CCC(=O)NN)cc1`, the TGI with MOLT-4 leukemia, with UO-31 renal, in the test on SN12C renal, in the test with NCI-H226 lung and in the test with SF-295 CNS was over 100 µM in each case.
As for `CO[C@@]12CC(=O)/C(=C(O)\C=C\c3ccccc3)C(=O)[C@]1(OC)Cc1ccccc1O2`, the TGI in the test with MOLT-4 leukemia is 96 µM; in the test on UO-31 renal, over 100 µM; with SN12C renal, over 100 µM; with NCI-H226 lung, 50.2 µM; in the test on SF-539 CNS it was 55.4 µM; in the test on SF-295 CNS, over 100 µM.
With `Cc1cccc(N=C2NC(=O)C(CC(=O)Nc3ccc(Cl)cc3C)S2)c1` (centres undefined), the TGI in the test with MOLT-4 leukemia, with UO-31 renal, with SN12C renal, with NCI-H226 lung, with SF-539 CNS and in the test with SF-295 CNS was over 100 µM in each case.
As to `CC12OC3CC(O1)C1(C=O)C4CCC5(C)C(c6ccc(=O)oc6)CCC5(O)C4CCC1(C3)O2` (centres undefined), the TGI with MOLT-4 leukemia was 0.244 µM; in the test on UO-31 renal, 0.97 µM; in the test with NCI-H226 lung it was 1.23 µM; in the test on SF-539 CNS, 0.228 µM; with SR leukemia, 0.245 µM; in the test with SF-295 CNS, 1.02 µM.
Turning to `CC(C)[O-].CC(C)[O-].[O-]c1cccc2cccnc12.[O-]c1cccc2cccnc12.[Ti+4]`, the GI50 in the test with UO-31 renal was over 100 µM; with NCI-H226 lung, over 100 µM; with SF-539 CNS, 97 µM; with SF-295 CNS, over 100 µM. Besides, the TGI in the test on UO-31 renal, with NCI-H226 lung, with SF-539 CNS and in the test on SF-295 CNS was over 100 µM in each case.
Regarding `O=C1C2Nc3ccccc3SC2C(=O)N1c1cccc([N+](=O)[O-])c1` (centres undefined), the TGI in the test with MOLT-4 leukemia, in the test on UO-31 renal, with SN12C renal, in the test with NCI-H226 lung, in the test with SF-539 CNS and with SR leukemia was over 100 µM each time. This compound also had a TGI in the test with SF-295 CNS of over 100 µM.
Regarding `COC(=O)C1=Cc2c(OC)cc(OC)c(OC)c2[C@H](c2cc(OC)c(OC)cc2OC)C1C(=O)OC` (some centres undefined), the TGI in the test on MOLT-4 leukemia, with UO-31 renal, in the test on SN12C renal, in the test on NCI-H226 lung, in the test on SF-539 CNS and with SF-295 CNS was over 100 µM throughout.
In the case of `OC1C2C=CCC1CCC2` (centres undefined), the TGI in the test with MOLT-4 leukemia, with UO-31 renal, in the test on SN12C renal, with NCI-H226 lung, in the test with SF-539 CNS and in the test with SR leukemia was over 100 µM each time. Also, the TGI in the test on SF-295 CNS is over 100 µM.
`CC1=NN(c2ccccc2)C(=O)C1N=Nc1ccc(Br)c(C)c1` (centres undefined): the TGI in the test with MOLT-4 leukemia, with SN12C renal, in the test on NCI-H226 lung, in the test on SF-539 CNS and in the test with SF-295 CNS was over 100 µM throughout.
Consider `O=c1[nH]c2c(O)cccc2c2cc3c(c(O)c12)OCO3`, for which the TGI in the test on MOLT-4 leukemia is over 100 µM; in the test on UO-31 renal, 54.1 µM; in the test with SN12C renal it was 92.3 µM; with NCI-H226 lung it was 55 µM; in the test with SF-539 CNS, 54.4 µM; with SF-295 CNS it was 44.8 µM.
Take `CC(C)c1cccc(C(C)C)c1NC1=CC(=O)C(=O)c2ccccc21`: the TGI in the test with MOLT-4 leukemia, with UO-31 renal, in the test with SN12C renal, with NCI-H226 lung, in the test on SF-539 CNS and in the test with SR leukemia was over 100 µM each time. In addition, the TGI with SF-295 CNS was over 100 µM.
Regarding `O=[N+]([O-])c1cc(/C=N/NS(=O)(=O)c2ccc(F)cc2)c(O)c([N+](=O)[O-])c1`, the TGI in the test on MOLT-4 leukemia is 88.6 µM; with UO-31 renal it was over 100 µM; in the test on SN12C renal it was over 100 µM; with SF-539 CNS, 43.9 µM; with SR leukemia it was 41.2 µM; in the test with SF-295 CNS, over 100 µM.
Consider `OC(c1ccccc1)c1c(-c2ccccc2)oc(-c2ccccc2)c1C(O)c1ccccc1` (centres undefined), for which the TGI in the test on MOLT-4 leukemia amounted to 22 µM; in the test on UO-31 renal, 25 µM; in the test with SN12C renal, 18.4 µM; with NCI-H226 lung, 21.9 µM; in the test with NCI/ADR-RES ovarian, 24.9 µM; in the test with DU-145 prostate, 28.3 µM. Moreover, the TGI in the test on SF-539 CNS is 30.5 µM; in the test with SR leukemia, 62.9 µM; in the test on SF-295 CNS, 29.3 µM.
`Cc1cc(=O)[nH]c(CNC(=O)Cc2ccccc2)n1`: the TGI in the test with MOLT-4 leukemia, in the test on UO-31 renal, with SN12C renal, with NCI-H226 lung, in the test with SF-539 CNS and in the test with SF-295 CNS was over 100 µM each time.
